By ED50 is commonly meant the dose at which the effect has come halfway, by size or by number of responders. Lower therefore signals greater potency.

A short description of this test: Effective dose of the compound. It counts as functional.

In the case of `COc1cc(N)c(Cl)cc1C(=O)NC1CCN(Cc2ccccc2)CC1` [CLEBOPRIDE], the 50% effect level (ED50) was put at a dose of 0.037 mg/kg. Under `COc1cc(N)c(Cl)cc1C(=O)NC1CCN2CC(c3ccccc3)CC2C1` (stereo not drawn) stands 0.024 mg/kg; under `CCN(CC)CCNC(=O)c1cc(Cl)c(N)cc1OC` [METOCLOPRAMIDE], 0.75 mg/kg.

(Values after ChEMBL document CHEMBL1126088, “Conformational analysis of dopamine D-2 receptor antagonists of the benzamide series in relation to a recently proposed D-2 receptor-interaction model” (J Med Chem, 1992).)
